Measured values: the NIST ThermoML archive (doi:10.1021/je060271a)
Several values for one entry are separate records, joined by “and”; a condition that tells them apart may be missing. Identical values can stand only once.

Conditions: Liquid, Vibrating tube method

CCCCCC(=O)OCC(COC(=O)CCCCC)(COC(=O)CCCCC)COC(=O)CCCCC [pentaerythritol tetrahexanoate]
Conditions | mass density
303.16 K, 25121 kPa | 1003.6 kg/m3
303.16 K, 25156 kPa | 1003.5 kg/m3
303.16 K, 25186 kPa | 1003.6 kg/m3
303.16 K, 25221 kPa | 1003.6 kg/m3
303.16 K, 25252 kPa | 1003.7 kg/m3
303.16 K, 25282 kPa | 1003.6 kg/m3
303.16 K, 25674 kPa | 1003.8 kg/m3
303.16 K, 25700 kPa | 1003.9 kg/m3
303.16 K, 25725 kPa | 1003.8 kg/m3
303.16 K, 25756 kPa | 1003.9 kg/m3
303.16 K, 25781 kPa | 1004 kg/m3
303.16 K, 25807 kPa | 1003.9 kg/m3
303.16 K, 25838 kPa | 1004 kg/m3
303.16 K, 25863 kPa | 1004 kg/m3
303.16 K, 25889 kPa | 1004 kg/m3
303.16 K, 28629 kPa | 1005.5 kg/m3
303.16 K, 28934 kPa | 1005.7 kg/m3
303.16 K, 28965 kPa | 1005.6 kg/m3
303.16 K, 28991 kPa | 1005.6 kg/m3
303.16 K, 29017 kPa | 1005.6 kg/m3
303.16 K, 29049 kPa | 1005.7 kg/m3
303.16 K, 29076 kPa | 1005.7 kg/m3
303.16 K, 29102 kPa | 1005.7 kg/m3
303.16 K, 29134 kPa | 1005.8 kg/m3
303.16 K, 29162 kPa | 1005.6 kg/m3
303.16 K, 29189 kPa | 1005.7 kg/m3
303.16 K, 29220 kPa | 1005.8 kg/m3
303.16 K, 29244 kPa | 1005.8 kg/m3
303.16 K, 29266 kPa | 1005.9 kg/m3
303.16 K, 29288 kPa | 1005.9 kg/m3
303.16 K, 29315 kPa | 1005.9 kg/m3
303.16 K, 29338 kPa | 1005.9 kg/m3
303.16 K, 29360 kPa | 1005.9 kg/m3
303.16 K, 29388 kPa | 1005.8 kg/m3
303.16 K, 29410 kPa | 1006 kg/m3
303.16 K, 29438 kPa | 1005.9 kg/m3
303.16 K, 30312 kPa | 1006.3 kg/m3
303.16 K, 30341 kPa | 1006.5 kg/m3
303.16 K, 30365 kPa | 1006.5 kg/m3
303.16 K, 30389 kPa | 1006.5 kg/m3
303.16 K, 30419 kPa | 1006.6 kg/m3
303.16 K, 30445 kPa | 1006.4 kg/m3
303.16 K, 30470 kPa | 1006.4 kg/m3
303.16 K, 30494 kPa | 1006.6 kg/m3
303.16 K, 30523 kPa | 1006.6 kg/m3
303.16 K, 30548 kPa | 1006.6 kg/m3
303.16 K, 30572 kPa | 1006.6 kg/m3
303.16 K, 30602 kPa | 1006.5 kg/m3
303.16 K, 30627 kPa | 1006.6 kg/m3
303.16 K, 30652 kPa | 1006.6 kg/m3
303.16 K, 30681 kPa | 1006.5 kg/m3
303.16 K, 30706 kPa | 1006.7 kg/m3
303.16 K, 30731 kPa | 1006.5 kg/m3
303.16 K, 30761 kPa | 1006.7 kg/m3
303.16 K, 30788 kPa | 1006.6 kg/m3
303.16 K, 30813 kPa | 1006.6 kg/m3
303.16 K, 30838 kPa | 1006.7 kg/m3
303.16 K, 30868 kPa | 1006.7 kg/m3
303.16 K, 30893 kPa | 1006.6 kg/m3
303.16 K, 30923 kPa | 1006.7 kg/m3
303.16 K, 30949 kPa | 1006.7 kg/m3
303.16 K, 30974 kPa | 1006.7 kg/m3
303.16 K, 31005 kPa | 1006.9 kg/m3
303.16 K, 31031 kPa | 1006.7 kg/m3
303.16 K, 31057 kPa | 1006.7 kg/m3
303.16 K, 31087 kPa | 1006.8 kg/m3
303.16 K, 31114 kPa | 1006.8 kg/m3
303.16 K, 31140 kPa | 1006.9 kg/m3
303.16 K, 32264 kPa | 1007.5 kg/m3
303.16 K, 32284 kPa | 1007.6 kg/m3
303.16 K, 32306 kPa | 1007.5 kg/m3
303.16 K, 32325 kPa | 1007.5 kg/m3
303.16 K, 32343 kPa | 1007.5 kg/m3
303.16 K, 32366 kPa | 1007.5 kg/m3
303.16 K, 32385 kPa | 1007.4 kg/m3
303.16 K, 32914 kPa | 1007.8 kg/m3
303.16 K, 32937 kPa | 1007.9 kg/m3
303.16 K, 32956 kPa | 1007.7 kg/m3
303.16 K, 32976 kPa | 1007.7 kg/m3
303.16 K, 33185 kPa | 1007.9 kg/m3
303.16 K, 33209 kPa | 1008 kg/m3
303.16 K, 33228 kPa | 1008 kg/m3
303.16 K, 33252 kPa | 1007.9 kg/m3
303.16 K, 33272 kPa | 1008.1 kg/m3
303.16 K, 33292 kPa | 1008 kg/m3
303.16 K, 33317 kPa | 1007.9 kg/m3
303.16 K, 33337 kPa | 1008.1 kg/m3
303.16 K, 33357 kPa | 1008.1 kg/m3
303.16 K, 33377 kPa | 1008.1 kg/m3
303.16 K, 33402 kPa | 1008.1 kg/m3
303.16 K, 33423 kPa | 1008 kg/m3
303.16 K, 33443 kPa | 1008.1 kg/m3
303.16 K, 33467 kPa | 1008.1 kg/m3
303.16 K, 33487 kPa | 1008.1 kg/m3
303.16 K, 33512 kPa | 1008.1 kg/m3
303.16 K, 33533 kPa | 1008.1 kg/m3
303.16 K, 33553 kPa | 1008.1 kg/m3
303.16 K, 33574 kPa | 1008.3 kg/m3
303.16 K, 33599 kPa | 1008.2 kg/m3
303.16 K, 33621 kPa | 1008.2 kg/m3
303.16 K, 33642 kPa | 1008.3 kg/m3
303.16 K, 33668 kPa | 1008.3 kg/m3
303.16 K, 33689 kPa | 1008.3 kg/m3
303.16 K, 33711 kPa | 1008.2 kg/m3
303.16 K, 33733 kPa | 1008.1 kg/m3
303.16 K, 33759 kPa | 1008.2 kg/m3
303.16 K, 33782 kPa | 1008.3 kg/m3
303.16 K, 33805 kPa | 1008.2 kg/m3
303.16 K, 33833 kPa | 1008.2 kg/m3
303.16 K, 33857 kPa | 1008.4 kg/m3
303.16 K, 33886 kPa | 1008.2 kg/m3
303.17 K, 238.4 kPa | 988.6 kg/m3
303.17 K, 238.6 kPa | 988.5 kg/m3
303.17 K, 239.1 kPa | 988.5 kg/m3
303.17 K, 272.8 kPa | 988.5 kg/m3
303.17 K, 273 kPa | 988.7 kg/m3
303.17 K, 273.3 kPa | 988.6 kg/m3
303.17 K, 273.5 kPa | 988.6 kg/m3
303.17 K, 273.6 kPa | 988.6 kg/m3
303.17 K, 355.5 kPa | 988.6 kg/m3
303.17 K, 355.8 kPa | 988.5 kg/m3
303.17 K, 356.5 kPa | 988.6 kg/m3
303.17 K, 356.8 kPa | 988.5 kg/m3
303.17 K, 357.2 kPa | 988.6 kg/m3
303.17 K, 357.5 kPa | 988.6 kg/m3
303.17 K, 361 kPa | 988.7 kg/m3
303.17 K, 361.7 kPa | 988.5 kg/m3
303.17 K, 362 kPa | 988.6 kg/m3
303.17 K, 362.4 kPa | 988.5 kg/m3
303.17 K, 362.7 kPa | 988.6 kg/m3
303.17 K, 363.1 kPa | 988.6 kg/m3
303.17 K, 363.8 kPa | 988.7 kg/m3
303.17 K, 364 kPa | 988.7 kg/m3
303.17 K, 375.4 kPa | 988.5 kg/m3
303.17 K, 376.3 kPa | 988.6 kg/m3
303.17 K, 376.5 kPa | 988.7 kg/m3 and 988.6 kg/m3
303.17 K, 377.2 kPa | 988.6 kg/m3
303.17 K, 378.5 kPa | 988.6 kg/m3
303.17 K, 1469.1 kPa | 989.4 kg/m3
303.17 K, 1484.4 kPa | 989.2 kg/m3
303.17 K, 1497.4 kPa | 989.2 kg/m3
303.17 K, 1510.5 kPa | 989.4 kg/m3
303.17 K, 1526.6 kPa | 989.4 kg/m3
303.17 K, 1540 kPa | 989.3 kg/m3
303.17 K, 1553.5 kPa | 989.4 kg/m3
